Here are results for two molecules from patent US8648195B2, “Stabilized crystal of 2-ethyl-3,7-dimethyl-6-(4-(trifluoromethoxy)phenoxy)quinoline-4-yl methyl carbonate, process for producing the crystal, and agricultural chemical composition comprising the crystal” (priority 2010, dated 2014).

Data set [1] has as its system Lepidoptera, Hemiptera, Coleoptera, Acari, Hymenoptera, Orthoptera, Diptera, and Order Thysanoptera. The settings on record: patent documents 5 and 6; cited from earlier work.
A short description of data set [2]: Storage test of aqueous suspension formulations (54° C., 2 weeks): particle size and properties. To be noted: conclusion from storage test. Format: physicochemical. Here is the method: The aqueous suspension formulations of Example 2 and Comparative Example 1 were stored at 54° C. for 2 weeks, and a change in quality between before and after the storage was observed. The size of crystals before and after the storage test was measured with a laser diffraction particle size distribution measuring apparatus and under an optical microscope. [Measurement with Laser Diffraction Particle Size Distribution Measuring Apparatus] Apparatus used: Laser diffraction particle size distribution measuring apparatus SALD-2200 manufactured by Shimadzu Corp The floable formulation diluted with water after the storage test was used for the measurement of particle size with the above measuring apparatus. The A crystal form after the storage could not be suspended in water, and, thus, instead of the suspension, before use in test, was exposed to ultrasonic waves until coarse particle nuclei disappeared. [Measurement Under Optical Microscope] Apparatus used: Digital microscope VHX-200 manufactured by Keyence Corp. Images of the water-diluted floable formulations after the storage test were taken with the apparatus (magnification: 1500 times). The major axes of crystals in the images were measured, and the average was calculated. […]

Regarding `CCc1nc2cc(C)c(Oc3ccc(OC(F)(F)F)cc3)cc2c(OC(=O)OC)c1C` [Compound I, 2-Ethyl-3,7-dimethyl-6-(4-(trifluoromethoxy)phenoxy)-quinoline-4-yl methyl carbonate], the Insecticidal activity entry in data set [1] is “high insecticidal activity”.
As to `CCc1nc2cc(C)c(Oc3ccc(OC(F)(F)F)cc3)cc2c(OC(=O)OC)c1C` [Example 1, 2-ethyl-3,7-dimethyl-6-(4-(trifluoromethoxy)phenoxy)quinoline-4-yl methyl carbonate], the “Physicochemical and storage stability of the crystal form” value in data set [2] is “high storage stability”.
